# Data from patent US6949528B1, “Compositions containing lysophosphatidic acids which inhibit apoptosis and uses thereof” (priority 1998, dated 2005).
# Key:
# Type in all cases: cell-based
# C3H/10T1/2 cells [1] = assay: Anti-apoptotic activity assay: serum deprivation of C3H/10T1/2 cells; conditions: for Maximum effect relative to 18:1 LPA: Toxic / lowest concentration at which cytotoxic effects were observed (column Concentration for Max Effect): C3H/10T1/2 cells; for lowest concentration at which cytotoxic effects were observed (column Concentration for Max Effect): compounds exhibiting toxicity; for Concentration for Max Effect / Maximum effect relative to 18:1 LPA / Emax: serum-deprived C3H/10T1/2 cells, 24 hours of treatment; for Emax: Mus musculus, read-out: Maximum effect relative to 18:1 LPA
# From the text: In order to determine the […] of the claimed invention, the following method of analysis was used. The cell assay is described in detail in U.S. Pat. Nos. 5,637,486, 5,620,888, and 5,681,703, and Tomei et al. (1993) Proc Natl. Aci. 90:853-857. Briefly, mouse fibroblast C3H/10T1/2 cells (clone 8) were obtained from ATCC (Rockville, Md.) and were maintained in exponential growth phase in which the cell cycle is randomly distributed and no cells are arrested in G0, and in quiescence. Exponential growth phase was assured by seeding at 2000 cells per 1 ml (5 ml for 60 mm culture plate) five days prior to the beginning of the experiment. Assays were performed on cells only up to passage 15. At T=0, cultures were transferred to serum-free medium, as an appropriate stimulus, and seed extracts were added. Controls included 10^−7 and 5×10^−8 M 12-O-tetradecanoyl phorbol-13-acetate (TPA) to ensure the responsiveness of the cell culture. The samples were added to serum free medium and sterile filtered prior to addition to the cultures. Assays were performed in triplicate or quadruplicate. Analyses of the cell responses were made between 18 and 28 hours of serum deprivation. Two assays were performed on each cell culture plate consisting of differential cell counts.
# 1. All non-adherent or loosely adherent cells were removed from the culture dish and counted by appropriate techniques, typically counting by electronic particle counting instrument. These are the apoptotic cells, the serum deprived released cells (SDR), released by the action of cultivation in serum-free medium. Approximately 95% of these released cells are apoptotic as shown by both ultrastructure analysis and DNA fragmentation analysis.
# 2. The remaining adherent cells (ADH) were exposed to a buffered, typically pH 7.3, balanced salt solution such as a Hanks Balanced Salt Solution without calcium and magnesium salts containing 0.05% trypsin and 0.53 mM ethylene diaminetetraacetic acid (EDTA). Each culture was incubated at either room temperature or 37(C on a rocking platform to ensure uniform distribution of the trypsin reagent over the culture surface. After a standardized period of time, typically 10 minutes, the released cells were removed from each culture dish and measured by the same means as described above, typically electronic particle counting. This ADH cell count is comprised of both trypsin resistant and trypsin sensitive cells as described in U.S. Pat. Nos. 5,637,486, 5,620,888, and 5,681,703.
# Anti-apoptotic activity is expressed in the following examples as the calculated concentration of material ((g/ml of media) required to save 50% of the cells released on serum free treatment.
# The ability of 18:1-LPA an other LPAs to protect serum-starved cells from apoptotic death was measured using the C3H/10T1/2 cell assay, performed as described in Example 2. The effect of various compounds on the ability of lysophosphatidic acid to protect serum-starved cells from apoptotic death was also measured. Log phase cells were seeded in 60 mm Petri dishes at 175-350 cells per cm2 and maintained in Basal Medium Eagle (BME) supplemented with 10% Heat Inactivated Fetal Bovine Serum (HIFBS). On day 3 the cells were given fresh media. Treatment began on day 5 when the media containing serum was removed and replaced with the LPA mixture to be tested. After 24 hours of treatment, day 6, serum deprived released (SDR) cells (the […] cell population) and adherent (ADH) cells were separated and counted using an electronic cell counter (Coulter Corporation, Hialea, Fla.). […]
# [2] = test system: rat neonatal cardiomyocytes; assay: Cardiomyocyte death induced by serum/glucose deprivation; conditions: serum/glucose deprivation
# Procedure: Cardiomyocytes were prepared from hearts of day-old Sprague Dawley rats by trypsinization and mechanical disaggregation (Simpson, (1985)) Circ. Res. 56:884-894. The cells were resuspended in MEM, 1×MEM vitamins (Gibco), 5% fetal bovine serum and 50 U/ml penicillin-G and pre-plated for 30 minutes to reduce contamination of non-myocytes. The non-adherent cardiac myocytes were separated and seeded in 2 ml in 35 mm dishes at a density of 3.5×10^5 viable cells per ml. The cells were allowed to adhere for 16-24 hours in a 37° C./5% CO2 humidified incubator.
# For serum deprivation, the medium was replaced with fresh serum-free RPMI, whereas serum/glucose deprivation was performed using glucose-free RPMI. The induction of cell death by adriamycin or C2-ceramide was accomplished by the addition of the agent prepared in serum-free RPMI. As a model of ischemia, cultures in serum and glucose free RPMI were placed in an airtight chamber and the latter was continuously perfused with oxygen-free gas overlay of 95% N2/5% CO2 for 8 hours at 37° C. To model reperfusion of the ischemic cells, 10% fetal bovine serum, 2 g/L of glucose were added and the cultures were returned to a normal oxygen gas overlay (37° C./5% CO2) in a humidified incubator for 16 hours.
# T investigate effects of LPA, LPA plus other phospholipids, PEG or their mixtures on cell death, various combinations of these components were added to cells in serum free medium at the beginning of cytotoxic treatment.
# Because cardiomyocytes are terminally differentiated non-dividing cells, viability was determined by measurement of the decrease in the relative number of adherent cells. […] Adherent cardiomyocytes were collected from culture dishes using 0.25% Trypsin/0.05% EDTA and counted on Coulter Counter ZM and Coulter Channelyzer 256.
# C3H/10T1/2 cells [3] = assay: Effect of proteins on anti-apoptotic activity of soy LPA, C3H/10T1/2 cell assay; conditions: for Protein +10 (g/mL Soy LPA, percent cells saved from apoptosis): 1:10 soy-LPA to protein (weight:weight); for Protein +10 (g/mL Soy LPA, percent cells saved from apoptosis) / Protein Alone (0.01%), percent cells saved from apoptosis: 24 hours serum deprivation; for Increase with LPA: difference protein + soy LPA minus protein alone; for Protein Alone (0.01%), percent cells saved from apoptosis: protein without LPA; for enhancement of the anti-apoptotic activity of soy-LPA (more than additive protection): soy-LPA added together with protein
# Procedure: Soy derived LPA (soy-LPA) (Avanti® Polar Lipids, Inc., Alabaster, Ala.) was stored in an organic solution and was dried immediately prior to assay using a Speed Vac (Savant Instruments, Hicksville, N.Y.). Tested proteins were resuspended at 10_mg/mL in a bicarbonate buffered saline/EDTA solution (50_mM NH4HCO3, […] NaCl, 250_(M EDTA) prior to being added to dried soy-LPA at a 1:10_soy-LPA to protein (weight:weight) ratio. The mixture was then sonicated for 5 minutes using a high power 80 Watt sonication bath (Laboratory Supplies Co., Hicksville, N.Y.). Following sonication, concentrated LPA/protein mixtures were left standing for 15 minutes at room temperature prior to dilution in cell culture assay media.
# The effect of various proteins on the ability of LPA to protect serum-starved cells from apoptotic death was measured using the C3H/10T1/2 cell assay, performed as described in Example 2, above. Log phase cells were seeded in 60 mm Petri dishes at 175-350 cells per cm^2 and maintained in Basal Medium Eagle (BME) supplemented with 10% fetal calf serum (Hyclone, Logan, Utah). At time zero, serum containing media was replaced with sterile filtered BME containing the LPA/protein mixture to be tested. After 24 hours of treatment, serum deprived release (SDR) cells (the apoptotic cell population) and adherent (ADH) cells were separated and counted using an electronic cell counter (Coulter Corporation, Hialea, Fla.). SDR cells were counted with the lower threshold setting at 6.3_(m and were defined as the apoptotic cells dying in response to cultivation in serum-free-media. Approximately 95% of the SDR cells are confirmed to be apoptotic as previously shown by size, ultrastructure and DNA fragmentation analysis. Adherent cells were removed by treatment with a Hanks' balanced salt solution containing 0.05% trypsin and 0.53_mM EDTA and were counted with the lower threshold setting at 11.01_(m. All samples were tested in triplicate and serum-deprived controls (BME only) were assayed at both the beginning and end of each experiment.
molecule,measurement,setting,value
"CCCCCCCCCCCCCCOCC(O)COP(=O)(OC)OC (racemic) [Compound 3, Dimethyl 3-O-tetradecyl-rac-glycero-1-phosphate]",Maximum effect relative to 18:1 LPA: Toxic,C3H/10T1/2 cells [1],Toxic
same,lowest concentration at which cytotoxic effects were observed (column Concentration for Max Effect),C3H/10T1/2 cells [1],30 µM
"CCCCCCCCCCOCC(O)COP(=O)(O)O (racemic) [Compound 11, 3-O-Decyl-rac-glycero-1-phosphate]",Emax,"[2]; Rattus norvegicus, Cardiomyocyte, read-out: Maximum effect relative to 18:1 LPA in cardiomyocytes",100%
same,Concentration ranges for cardiomyocyte protection,[2],1 to 10 µM
"CCCCCCCC/C=C\CCCCCCCCOCC(COP(=O)(OC)OC)OC (racemic) [Compound 23, Dimethyl 1-O-oleyl-2-O-methyl-rac-glycero-1-phosphate]",Concentration for Max Effect,C3H/10T1/2 cells [1],30 µM
same,Maximum effect relative to 18:1 LPA,C3H/10T1/2 cells [1],17%
"CCCCCCCC/C=C\CCCCCCCCOCC(COP(=O)(O)O)OC (racemic) [Compound 24, 3-O-Oleyl-2-O-methyl-rac-glycero-1-phosphate]",Emax,C3H/10T1/2 cells [1],100%
same,Concentration for Max Effect,C3H/10T1/2 cells [1],10 µM
"CCCCCCCC/C=C\CCCCCCCC(=O)OCC(Br)COP(=O)(O)O (racemic) [Compound 37, 3-O-Oleoyl-2-deoxy-2-bromo-rac-glycero-1-phosphate]",Concentration for Max Effect,C3H/10T1/2 cells [1],30 µM
same,Maximum effect relative to 18:1 LPA,C3H/10T1/2 cells [1],75%
"CCCCCCCC/C=C\CCCCCCCC(=O)OCC(COP(=O)(O)O)OC (racemic) [Compound 46, 3-O-Oleoyl-2-O-methyl-rac-glycero-1-phosphate]",Emax,C3H/10T1/2 cells [1],75%
same,Concentration for Max Effect,C3H/10T1/2 cells [1],30 µM
"CCCCCCCC/C=C\CCCCCCCCOCC(COP(O)(=S)OCC(COCCCCCCCC/C=C\CCCCCCCC)OC)OC (racemic) [Compound 80, Bis(3-O-oleyl-2-O-methyl-rac-glyceryl)thiophosphate]",Concentration for Max Effect,C3H/10T1/2 cells [1],3 µM
same,Maximum effect relative to 18:1 LPA,C3H/10T1/2 cells [1],100%
"CCCCCCCCCC(=O)OC[C@@H](O)COP(=O)(O)O [10:0 LPA, reference compound]",Concentration for Max Effect,C3H/10T1/2 cells [1],30 µM
same,Maximum effect relative to 18:1 LPA,C3H/10T1/2 cells [1],30%
"CCCCCCCCCCCCCC(=O)OC[C@@H](O)COP(=O)(O)O [14:0 LPA, reference compound]",Concentration for Max Effect,C3H/10T1/2 cells [1],30 µM
same,Maximum effect relative to 18:1 LPA,C3H/10T1/2 cells [1],80%
"CCCCCCCCCCCCCCCC(=O)OCC(O)COP(=O)(O)O (stereo not shown) [16:0 LPA, Palmitoyl-LPA, reference compound]",cells protected,"C3H/10T1/2 cells [1]; 5 (M, FIG. 5), medium alone 30%",about 42%
same,cells protected,"C3H/10T1/2 cells [1]; 15 (M, FIG. 5)",63%
same,Concentration for Max Effect,C3H/10T1/2 cells [1],10 µM
same,Maximum effect relative to 18:1 LPA,C3H/10T1/2 cells [1],80%
"CCCCCCCCCCCCCCOCC1CO1 (stereo not shown) [Compound 8, 1-O-Tetradecyl-glycidol]",Maximum effect relative to 18:1 LPA: Toxic,C3H/10T1/2 cells [1],Toxic
same,lowest concentration at which cytotoxic effects were observed (column Concentration for Max Effect),C3H/10T1/2 cells [1],30 µM
"CCCCCCCC/C=C\CCCCCCCC(=O)NCCOP(=O)(OC)OC [Compound 59, Dimethyl 2-amino-2-N-oleoyl-ethylphopshate]",Maximum effect relative to 18:1 LPA: Toxic,C3H/10T1/2 cells [1],Toxic
same,lowest concentration at which cytotoxic effects were observed (column Concentration for Max Effect),C3H/10T1/2 cells [1],30 µM
"CCCCCCCC/C=C\CCCCCCCC(=O)NC(C)COP(=O)(O)O (stereo not shown) [Compound 61, 2-Amino-2-N-oleoyl-propyl phosphate]",Concentration for Max Effect,C3H/10T1/2 cells [1],30 µM
same,Maximum effect relative to 18:1 LPA,C3H/10T1/2 cells [1],70%
"CCCCCCCC/C=C\CCCCCCCCCCCCOP(=O)(O)O [Compound 71, Erucyl phosphate]",Concentration for Max Effect,C3H/10T1/2 cells [1],100 µM
same,Maximum effect relative to 18:1 LPA,C3H/10T1/2 cells [1],76%
"CCCCCCCCCCCCCCCCCC(=O)OCC(O)COP(=O)(O)O (stereo not shown) [stearyl-LPA, reference compound]",cells protected,"C3H/10T1/2 cells [1]; 5 (M, FIG. 6)",63%
same,cells protected,"C3H/10T1/2 cells [1]; 15 (M, FIG. 6)",65%
Casein,"Protein +10 (g/mL Soy LPA, percent cells saved from apoptosis)",C3H/10T1/2 cells [3],84.3%
same,Increase with LPA,C3H/10T1/2 cells [3],+20.9%
same,"Protein Alone (0.01%), percent cells saved from apoptosis",C3H/10T1/2 cells [3],63.4%
same,enhancement of the anti-apoptotic activity of soy-LPA (more than additive protection),C3H/10T1/2 cells [3],to a lesser degree
Dimethyl 3-amino-N-oleoyl-propylphosphate [Compound 53],Maximum effect relative to 18:1 LPA: Toxic,C3H/10T1/2 cells [1],Toxic
same,lowest concentration at which cytotoxic effects were observed (column Concentration for Max Effect),C3H/10T1/2 cells [1],100 µM
Myelin Basic Protein,"Protein +10 (g/mL Soy LPA, percent cells saved from apoptosis)",C3H/10T1/2 cells [3],17.0%
same,Increase with LPA,C3H/10T1/2 cells [3],+0.2%
same,"Protein Alone (0.01%), percent cells saved from apoptosis",C3H/10T1/2 cells [3],16.8%
same,enhancement of the anti-apoptotic activity of soy-LPA (more than additive protection),C3H/10T1/2 cells [3],did not enhance
Phosphatidylserine [Phosphatidylserine (PS)],toxicity of lipid alone,"C3H/10T1/2 cells [1]; PS alone, FIG. 2",slightly toxic
"lysophosphatidyl serine [LPS, reference compound]",activity relative to 18:1-LPA,"C3H/10T1/2 cells [1]; on a molar basis, FIG. 4",approximately 50%
phosphatidyl choline [PC],cells survived,"C3H/10T1/2 cells [1]; lipids alone added to culture medium, FIG. 3",about 25%
"Myoglobin: myoglobin from horse heart (protein, UniProt P68082 2-154, looked up) Myoglobin: GLSDGEWQQVLNVWGKVEADIAGHGQEVLIRLFTGHPETLEKFDKFKHLKTEAEMKASEDLKKHGTVVLTALGGILKKKGHHEAELKPLAQSHATKHKIPIKYLEFISDAIIHVLHSKHPGDFGADAQGAMTKALELFRNDIAAKYKELGFQG","Protein +10 (g/mL Soy LPA, percent cells saved from apoptosis)",C3H/10T1/2 cells [3],27.8%
same,Increase with LPA,C3H/10T1/2 cells [3],+18.5%
same,"Protein Alone (0.01%), percent cells saved from apoptosis",C3H/10T1/2 cells [3],9.3%
same,enhancement of the anti-apoptotic activity of soy-LPA (more than additive protection),C3H/10T1/2 cells [3],to a lesser degree
